According to ChEMBL document CHEMBL1146276, “Development of a novel therapeutic suppressor of brain proinflammatory cytokine up-regulation that attenuates synaptic dysfunction and behavioral deficits” (Bioorg Med Chem Lett, 2007):
Values after ≈ are worked out from the molar mass of the structure shown. Values belong to the compound of their own block, whether it stands above or below them. Active and inactive are the calls of the source. The rule behind the calls is not given here.

Legend:
[1] = Inhibition of IL1 beta production in glia cells; assay type: functional, cell-based; conditions: Homo sapiens
[2] = Aqueous solubility of the compound; assay type: physicochemical; conditions: buffer
Cavia porcellus = test: Cardiotoxicity in guinea pig assessed as prolongation of QTc interval at 15 mg/kg, po; assay type: toxicity, organism-based; parameters: dose 15 mg/kg, route oral; conditions: in vivo
[3] = Brain penetration, LogBB of the compound; assay type: ADME; conditions: read-out: logBB (converted)
[4] = Partition coefficient, log P of the compound; assay type: physicochemical; conditions: octanol/water
Mus musculus [5] = test: Reduction of GFAP-positive astrocytes in human amyloid-beta induced mouse injury model at […], po for 2 weeks after 60 days of injury; assay type: functional, organism-based; parameters: dose 2.5 mg/kg
Mus musculus [6] = test: Reduction of F4/80 positive microglia in human amyloid-beta induced mouse injury model at […], po for 2 weeks after 60 days of injury; assay type: functional, organism-based; parameters: dose 2.5 mg/kg
Mus musculus [7] = test: Suppression of S100B production in human amyloid-beta induced mouse injury model at […], po for 2 weeks after 60 days of injury; assay type: functional, organism-based; parameters: dose 2.5 mg/kg
Mus musculus [8] = species: Mus musculus; test: Prevention of loss of synaptic protein synaptophytsin in human amyloid-beta induced mouse injury model; assay type: functional, organism-based
Mus musculus [9] = species: Mus musculus; test: Prevention of loss of synaptic protein PSD95 in human amyloid-beta induced mouse injury model; assay type: functional, organism-based
Mus musculus [10] = test: Suppression of TNFalpha production in human amyloid-beta induced mouse injury model at […], po for 2 weeks after 60 days of injury; assay type: functional, organism-based; parameters: dose 2.5 mg/kg
Mus musculus [11] = species: Mus musculus; test: Attenuation of hippocampal dependent behavioral deficits in mouse by Y maze test; assay type: functional, organism-based; conditions: Hippocampus
Mus musculus [12] = test: Suppression of IL1-beta production in human amyloid-beta induced mouse injury model at […], po for 2 weeks after 60 days of injury; assay type: functional, organism-based; parameters: dose 2.5 mg/kg
[13] = Chemical stability in water; assay type: physicochemical; conditions: buffer
[14] = Chemical stability in dilute base after 5 days; assay type: physicochemical; conditions: read-out: Stability
[15] = Chemical stability in hydrogen peroxide upto 48 hrs; assay type: physicochemical; conditions: read-out: Stability
Homo sapiens = species: Homo sapiens; test: Suppression of proinflammatory cytokine production in glia cells; assay type: functional, cell-based

IC50 [1]: 46.1 µM
SMILES: Cc1cc(-c2ccccc2)nnc1N1CCN(c2cnccn2)CC1

Solubility [2]: 16 ng/mL (≈ 0.0481 µM)
IC50 [1]: 8.3 µM
Kp [3]: 2.82
SMILES: Cc1cc(-c2ccccc2)nnc1N1CCN(c2ncccn2)CC1 [MINOZAC FREE BASE]
Activity (Cavia porcellus): Non-toxic

IC50 [1]: 15.5 µM
SMILES: Cc1cc(-c2ccccc2)nnc1N1CCN(c2ccccc2)CC1

IC50 [1]: 31.4 µM
SMILES: Cc1cc(-c2ccccc2)nnc1N1CCN(C2CCCCC2)CC1

logP [4]: 2.7
SMILES: c1ccc(-c2cc(-c3ccccc3)c(N3CCN(c4ncccn4)CC3)nn2)cc1 [listing 1 of 2 here]

SMILES: Cc1cc(-c2ccccc2)nnc1N1CCN(c2ncccn2)CC1
Activity (Mus musculus [5]): Active
Activity (Mus musculus [6]): Active
Activity (Mus musculus [7]): Active
Activity (Mus musculus [8]): Active
Activity (Mus musculus [9]): Active
Activity (Mus musculus [10]): Active
Activity (Mus musculus [11]): Active
Activity (Mus musculus [12]): Active

Solubility [2]: < 2 ng/mL
SMILES: c1ccc(-c2cc(-c3ccccc3)c(N3CCN(c4ncccn4)CC3)nn2)cc1 [listing 2 of 2 here]

Stability [13]: < 5%
remaining at 120 h [14]: 53%
remaining at 48 h [15]: < 10%
logP [4]: 2.3
SMILES: Cc1cc(-c2ccccc2)nnc1N1CCN(c2ncccn2)CC1.Cl.O

SMILES: Cc1cc(-c2ccccc2)nnc1NCCN1CCOCC1
Activity (Homo sapiens): inactive

IC50 [1]: 9.5 µM
SMILES: Clc1cc(-c2ccccc2)nnc1N1CCN(c2ncccn2)CC1

IC50 [1]: 48.9 µM
SMILES: Cc1cc(-c2ccccc2)nnc1N1CCN(C)CC1
